# Data from patent publication EP1247803A2, “Indolinone compounds suitable for modulation of protein kinases” (Sugen, Inc., priority 1996, dated 1998).
# What was measured:
# PDGF-R = PDGF-R (Homo sapiens, UniProt P09619); experiment: PDGF-R ELISA; type: cell-based
# Excerpt: A PDGF-R ELISA is described in International Patent Publication No. WO 96/40116, published December 19, 1996 by Tang et al.
# EGFR = target: T1, EGFR (Homo sapiens, UniProt P00533); experiment: EGFR ELISA assay (in vitro kinase activity, EGFR captured from A431 cell lysate); type: biochemical; design: concentration or dose not given beside the values
# T1 construct: Add 7 ug A431 cell lysate per well (EGFR source); endogenous in cells; host or cells: A431
# T1 sequence (P00533 25-1210): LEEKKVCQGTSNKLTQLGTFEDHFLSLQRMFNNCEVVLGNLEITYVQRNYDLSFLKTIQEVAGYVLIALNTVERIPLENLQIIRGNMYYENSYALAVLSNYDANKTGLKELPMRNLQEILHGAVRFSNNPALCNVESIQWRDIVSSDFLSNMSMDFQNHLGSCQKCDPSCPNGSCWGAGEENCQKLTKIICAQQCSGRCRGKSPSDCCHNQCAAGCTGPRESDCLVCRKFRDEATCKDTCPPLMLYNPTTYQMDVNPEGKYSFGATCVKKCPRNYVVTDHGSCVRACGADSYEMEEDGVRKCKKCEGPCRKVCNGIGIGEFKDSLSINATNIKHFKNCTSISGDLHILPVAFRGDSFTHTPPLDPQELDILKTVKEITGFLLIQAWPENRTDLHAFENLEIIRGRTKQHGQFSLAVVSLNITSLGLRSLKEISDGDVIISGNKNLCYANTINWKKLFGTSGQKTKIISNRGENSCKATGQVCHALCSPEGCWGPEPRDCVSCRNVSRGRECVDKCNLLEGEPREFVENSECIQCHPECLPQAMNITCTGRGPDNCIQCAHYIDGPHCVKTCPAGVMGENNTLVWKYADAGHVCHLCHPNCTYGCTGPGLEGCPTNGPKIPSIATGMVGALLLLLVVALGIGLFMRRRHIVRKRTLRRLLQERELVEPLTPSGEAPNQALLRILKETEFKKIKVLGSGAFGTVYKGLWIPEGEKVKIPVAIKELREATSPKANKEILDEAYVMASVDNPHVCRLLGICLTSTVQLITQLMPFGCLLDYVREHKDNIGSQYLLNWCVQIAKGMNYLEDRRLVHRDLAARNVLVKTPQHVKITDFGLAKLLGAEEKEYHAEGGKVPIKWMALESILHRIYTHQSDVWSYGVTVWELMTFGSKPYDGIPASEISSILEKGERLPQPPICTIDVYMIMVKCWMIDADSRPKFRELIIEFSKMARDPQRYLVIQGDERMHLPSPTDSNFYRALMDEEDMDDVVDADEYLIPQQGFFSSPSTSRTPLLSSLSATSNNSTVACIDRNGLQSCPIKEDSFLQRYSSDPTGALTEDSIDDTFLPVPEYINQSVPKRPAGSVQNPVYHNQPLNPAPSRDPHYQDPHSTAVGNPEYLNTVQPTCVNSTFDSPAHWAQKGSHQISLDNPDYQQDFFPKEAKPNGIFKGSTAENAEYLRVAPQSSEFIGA
# Procedure, shortened: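 EGFR from A431 lysate was captured on anti-EGFR antibody-coated plates and preincubated with compounds for 30 min. Autophosphorylation ran 5 min with 3 uM ATP and 5 mM MnCl2 (final), stopped with 20 mM EDTA. Phosphotyrosine was detected by anti-pTyr ELISA with ABTS/H2O2, read at 410 nm.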
# MET = MET biochemical kinase assay; design: species or system human; concentration or dose not given beside the values
# Procedure, shortened: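 Plates coated with anti-rabbit Fc bind a rabbit anti-MET antibody that captures receptor from cell lysates; unbound protein is washed off before compound and ATP-containing kinase buffer go in.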
# PDGF-R, sequence (P09619 33-1106, species assumed): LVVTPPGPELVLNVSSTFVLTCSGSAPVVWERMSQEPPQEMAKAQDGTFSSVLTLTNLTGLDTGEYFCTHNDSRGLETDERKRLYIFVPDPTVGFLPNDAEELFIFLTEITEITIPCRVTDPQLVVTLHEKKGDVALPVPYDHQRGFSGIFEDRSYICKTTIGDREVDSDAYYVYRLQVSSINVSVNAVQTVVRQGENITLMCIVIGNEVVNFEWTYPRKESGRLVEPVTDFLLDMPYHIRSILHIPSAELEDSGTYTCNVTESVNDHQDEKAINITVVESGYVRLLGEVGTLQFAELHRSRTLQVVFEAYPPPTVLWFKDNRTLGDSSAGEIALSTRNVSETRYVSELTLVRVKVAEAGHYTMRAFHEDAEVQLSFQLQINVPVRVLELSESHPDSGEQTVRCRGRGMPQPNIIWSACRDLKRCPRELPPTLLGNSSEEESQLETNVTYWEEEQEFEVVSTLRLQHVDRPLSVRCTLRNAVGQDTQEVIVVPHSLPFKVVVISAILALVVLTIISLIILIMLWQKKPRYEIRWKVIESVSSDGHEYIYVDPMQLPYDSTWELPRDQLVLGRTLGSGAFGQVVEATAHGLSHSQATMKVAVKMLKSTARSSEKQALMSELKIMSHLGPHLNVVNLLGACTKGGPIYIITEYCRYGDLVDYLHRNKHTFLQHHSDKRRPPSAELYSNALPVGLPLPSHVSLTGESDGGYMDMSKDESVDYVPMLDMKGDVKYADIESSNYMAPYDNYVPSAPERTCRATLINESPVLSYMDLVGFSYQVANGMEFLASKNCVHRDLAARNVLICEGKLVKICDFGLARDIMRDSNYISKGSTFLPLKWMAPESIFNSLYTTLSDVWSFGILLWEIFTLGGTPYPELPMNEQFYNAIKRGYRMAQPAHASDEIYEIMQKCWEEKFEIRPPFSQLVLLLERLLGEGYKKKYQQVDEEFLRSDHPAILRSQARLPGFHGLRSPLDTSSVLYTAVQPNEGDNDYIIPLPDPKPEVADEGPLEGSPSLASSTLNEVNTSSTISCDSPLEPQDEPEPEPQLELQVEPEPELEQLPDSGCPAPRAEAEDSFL
SMILES,PDGF Kinase %Inhibition (PDGF-R) [%],Biochem EGFR %Inhibition (EGFR) [%],Met Kinase % Inhibition (MET) [%]
O=C1Nc2c(Br)cc(Br)cc2C1=Cc1ccc(C(F)(F)F)cc1 [10722/A11],21.5,-0.1,68.6
CNS(=O)(=O)c1ccc2c(c1)C(=Cc1ccc(C(=O)O)cc1)C(=O)N2 [10722/D05],22.0,-3.8,35.8
O=C1Nc2ccc(S(=O)(=O)Nc3ccc(C(F)(F)F)cc3)cc2C1=Cc1ccc(C(=O)O)cc1 [10722/E05],19.2,-7.0,73.0
CNS(=O)(=O)c1ccc2c(c1)C(=Cc1ccc(C(F)(F)F)cc1)C(=O)N2 [10722/D11],15.2,-10.1,41.0
CCCCN(CCCC)c1ccc(C=C2C(=O)Nc3ccc(S(=O)(=O)Nc4ccc(C(F)(F)F)cc4)cc32)cc1 [10722/E10],31.8,-13.3,86.6
CC(C)(C)c1cc(C=C2C(=O)Nc3ccc(S(=O)(=O)Nc4ccc(C(F)(F)F)cc4)cc32)cc([N+](=O)[O-])c1O [10722/E02],23.2,22.2,71.1
CCCCN(CCCC)c1ccc(C=C2C(=O)Nc3ccc(S(=O)(=O)NC)cc32)cc1 [10722/D10],41.5,-0.6,40.5
CNS(=O)(=O)c1ccc2c(c1)C(=Cc1ccc(F)cc1F)C(=O)N2 [10722/D06],8.9,-2.5,32.4
CNS(=O)(=O)c1ccc2c(c1)C(=Cc1cc(Cl)c(O)c(C(C)(C)C)c1)C(=O)N2 [10722/D08],41.5,-2.6,60.5
CNS(=O)(=O)c1ccc2c(c1)C(=Cc1ccc([N+](=O)[O-])s1)C(=O)N2 [10722/D04],15.7,20.3,63.4
CC(C)(C)c1cc(C=C2C(=O)Nc3ccc(I)cc32)cc([N+](=O)[O-])c1O [10722/B02],28.9,16.3,44.3
Cc1cc(C=C2C(=O)Nc3c(Br)cc(Br)cc32)cc(C)c1O [10722/A07],23.8,29.9,64.1
CNS(=O)(=O)c1ccc2c(c1)C(=Cc1csc([N+](=O)[O-])c1)C(=O)N2 [10722/D09],30.6,-17.2,52.2
O=C1Nc2ccc(S(=O)(=O)Nc3ccc(C(F)(F)F)cc3)cc2C1=Cc1csc([N+](=O)[O-])c1 [10722/E09],26.6,4.1,55.1
O=C1Nc2c(Br)cc(Br)cc2C1=Cc1c(O)cc(O)cc1O [10722/A03],29.5,0.8,90.3
O=C1Nc2ccc(S(=O)(=O)Nc3ccc(C(F)(F)F)cc3)cc2C1=Cc1c(O)cc(O)cc1O [10722/E03],-7.2,33.0,88.4
O=C1Nc2c(Br)cc(Br)cc2C1=Cc1csc([N+](=O)[O-])c1 [10722/A09],21.5,16.8,86.5

SMILES,PDGF Kinase %Inhibition (PDGF-R) [%],Biochem EGFR %Inhibition (EGFR) [%],Met Kinase % Inhibition (MET) [%]
O=C1Nc2c(Br)cc(Br)cc2C1=Cc1ccc(F)cc1F [10722/A06],19.8,28.4,71.6
O=C1Nc2ccc(I)cc2C1=Cc1c(O)cc(O)cc1O [10722/B03],3.7,19.6,40.1
CC(C)(C)c1cc(C=C2C(=O)Nc3c(Br)cc(Br)cc32)cc([N+](=O)[O-])c1O [10722/A02],28.9,23.7,44.9
CC(C)(C)c1cc(C=C2C(=O)Nc3ccc(I)cc32)cc(Cl)c1O [10722/B08],27.8,0.5,72.0
O=C1Nc2ccc(S(=O)(=O)Nc3ccc(C(F)(F)F)cc3)cc2C1=Cc1ccc(C(F)(F)F)cc1 [10722/E11],28.3,4.2,84.0
CC(C)(C)c1cc(C=C2C(=O)Nc3c(Br)cc(Br)cc32)cc(Cl)c1O [10722/A08],15.2,23.9,70.5
O=C1Nc2c(Br)cc(Br)cc2C1=Cc1ccc(C(=O)O)cc1 [10722/A05],33.5,22.4,90.5
CNS(=O)(=O)c1ccc2c(c1)C(=Cc1cc([N+](=O)[O-])c(O)c(C(C)(C)C)c1)C(=O)N2 [10722/D02],31.8,26.1,26.4
CCCCN(CCCC)c1ccc(C=C2C(=O)Nc3ccc(I)cc32)cc1 [10722/B10],20.3,-11.3,56.4
O=C1Nc2ccc(I)cc2C1=Cc1ccc([N+](=O)[O-])s1 [10722/B04],3.1,10.6,53.4
CNS(=O)(=O)c1ccc2c(c1)C(=Cc1c(O)cc(O)cc1O)C(=O)N2 [10722/D03],-9.4,31.0,52.8
O=C1Nc2ccc(S(=O)(=O)Nc3ccc(C(F)(F)F)cc3)cc2C1=Cc1ccc([N+](=O)[O-])s1 [10722/E04],30.6,1.4,52.6
O=C1Nc2ccc(I)cc2C1=Cc1ccc(C(=O)O)cc1 [10722/B05],21.5,9.3,67.2
CNS(=O)(=O)c1ccc2c(c1)C(=Cc1cc(C)c(O)c(C)c1)C(=O)N2 [10722/D07],25.5,-2.8,42.6
O=C1Nc2ccc(I)cc2C1=Cc1ccc(F)cc1F [10722/B06],21.5,-4.9,72.6
CC(C)(C)c1cc(C=C2C(=O)Nc3ccc(S(=O)(=O)Nc4ccc(C(F)(F)F)cc4)cc32)cc(Cl)c1O [10722/E08],38.7,10.4,82.8
O=C1Nc2c(Br)cc(Br)cc2C1=Cc1ccc([N+](=O)[O-])s1 [10722/A04],-0.9,21.0,51.4
